For 23 molecules, IC50 results are on record in patent US20170334899A1, “AMINO-SUBSTITUTED ISOTHIAZOLES” (Bayer Pharma Aktiengesellschaft, priority 2014, published 2017).

The subject of assay [1] is human cervical tumor cell line HeLa (ATCC CCL-2). The assay is described as follows: SAC-Formation - Nocodazole-Induced Assay. The class given is cell-based. Conditions: Homo sapiens, HeLa, 24 h, HeLa cells, nocodazole 0.1 μg/ml together with test compound, decrease of mitotic cells (phospho-histone H3 Ser10). Put shortly:
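HeLa cells, plated overnight, were treated 24 h at 37 °C with nocodazole (0.1 μg/ml final) plus test compound (0.005–20 μM, 0.5% DMSO) added at the same time. After fixation, anti-phospho-histone H3 Ser10 and Hoechst staining gave the mitotic cell fraction by imaging. Values came from four-parameter Hill fits.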

For another assay, the system named is HeLa. Nature of the assay: Proliferation assay (crystal violet), HeLa. The class given is cell-based. The following applies: Homo sapiens, HeLa, 96 h, HeLa cells; 4 days incubation; crystal violet staining; read-out: IC50 inhibition of proliferation, HeLa. Put shortly:
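Tumor cells seeded at 1000–5000 cells/well in medium with 10% FCS; after 24 h, compounds added at 0.001–10 μM (0.5% DMSO) for 4 days. Cells fixed with glutaraldehyde, stained with crystal violet, dye dissolved in acetic acid and read at 595 nm. IC50 from 4-parameter fit, normalized to zero-point plate and untreated cells.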

As for `Cc1nsc(Nc2cnc(C(F)(F)F)cn2)c1C(=O)Nc1ccc(OC[C@@H]2CCCN(CC(F)F)C2)nc1` [Example 375, N-(6-{[(3R)-1-(2,2-difluoroethyl)piperidin-3-yl]methoxy}pyridin-3-yl)-3-methyl-5-{[5-(trifluoromethyl)pyrazin-2-yl]amino}-1,2-thiazole-4-carboxamide], the values for the IC50 (in assay [1]; in the assay with HeLa) were 0.04 µM and 0.3 µM, respectively.
For `Cc1nsc(Nc2cnc(C(F)(F)F)cn2)c1C(=O)Nc1ccc(OCC2CCCN(CCC(F)(F)F)C2)nc1` (stereo not shown) [Example 328, 3-methyl-5-{[5-(trifluoromethyl)pyrazin-2-yl]amino}-N-(6-{[1-(3,3,3-trifluoropropyl)piperidin-3-yl]methoxy}pyridin-3-yl)-1,2-thiazole-4-carboxamide], in that order: 0.0018 µM and 0.36 µM.
For `Cc1nsc(Nc2cnc(C(F)(F)F)cn2)c1C(=O)Nc1ccc(O[C@@H]2CCN(CC(F)(F)F)C[C@H]2F)nc1` [Example 367, N-(6-{[(3R,4R)-3-fluoro-1-(2,2,2-trifluoroethyl)piperidin-4-yl]oxy}pyridin-3-yl)-3-methyl-5-{[5-(trifluoromethyl)pyrazin-2-yl]amino}-1,2-thiazole-4-carboxamide], in that order: 0.027 µM and 0.3 µM.
Consider `CCCN1CC[C@H](Oc2ccc(NC(=O)c3c(C)nsc3Nc3cnc(C(F)(F)F)cn3)cn2)[C@@H](F)C1` [Example 370, N-(6-{[(3S,4S)-3-fluoro-1-propylpiperidin-4-yl]oxy}pyridin-3-yl)-3-methyl-5-{[5-(trifluoromethyl)pyrazin-2-yl]amino}-1,2-thiazole-4-carboxamide], for which the IC50 in assay [1] was determined as 0.022 µM; in the assay with HeLa, 0.3 µM.
Consider `Cc1nsc(Nc2cnc(C(F)(F)F)cn2)c1C(=O)Nc1ccc(OCC2CCN(CC(F)(F)F)CC2)nc1` [Example 346, 3-methyl-N-(6-{[1-(2,2,2-trifluoroethyl)piperidin-4-yl]methoxy}pyridin-3-yl)-5-{[5-(trifluoromethyl)pyrazin-2-yl]amino}-1,2-thiazole-4-carboxamide], for which the results for the IC50 (in assay [1]; in the assay with HeLa) were 0.033 µM and 0.27 µM, respectively.
As to `Cc1nsc(Nc2cnc(C(F)(F)F)cn2)c1C(=O)Nc1ccc(OCCCN(C)CC(F)F)nc1` [Example 353, N-(6-{3-[(2,2-difluoroethyl)(methyl)amino]propoxy}pyridin-3-yl)-3-methyl-5-{[5-(trifluoromethyl)pyrazin-2-yl]amino}-1,2-thiazole-4-carboxamide], the IC50 came to 0.096 µM in assay [1] and 0.33 µM with HeLa.
Taken in the same sequence, the figures for `Cc1nsc(Nc2cnc(C(F)(F)F)cn2)c1C(=O)Nc1ccc(OCC2CCCN(CC(F)(F)F)C2)nc1` (stereo not shown) [Example 326, 3-methyl-N-(6-{[1-(2,2,2-trifluoroethyl)piperidin-3-yl]methoxy}pyridin-3-yl)-5-{[5-(trifluoromethyl)pyrazin-2-yl]amino}-1,2-thiazole-4-carboxamide] were 0.0056 µM and 0.3 µM.
On to `Cc1nsc(Nc2cnc(C(F)(F)F)cn2)c1C(=O)Nc1ccc(N2CCN(CC(F)(F)F)CC2)cn1` [Example 373, 3-methyl-N-{5-[4-(2,2,2-trifluoroethyl)piperazin-1-yl]pyridin-2-yl}-5-{[5-(trifluoromethyl)pyrazin-2-yl]amino}-1,2-thiazole-4-carboxamide], for which the IC50 in assay [1] turned out to be 0.26 µM; in the assay on HeLa, 0.81 µM.
Taken in the same sequence, the figures for `Cc1nsc(Nc2cnc(C(F)(F)F)cn2)c1C(=O)Nc1ccc(OC2CCCN(CCC(F)(F)F)C2)nc1` (stereo not shown) [Example 332, 3-methyl-5-{[5-(trifluoromethyl)pyrazin-2-yl]amino}-N-(6-{[1-(3,3,3-trifluoropropyl)piperidin-3-yl]oxy}pyridin-3-yl)-1,2-thiazole-4-carboxamide] were 0.0071 µM and 0.35 µM.
On to `Cc1nsc(Nc2cnc(C(F)(F)F)cn2)c1C(=O)Nc1ccc(OC2CCCN(CC(F)(F)F)C2)nc1` (stereo not shown) [Example 331, 3-methyl-N-(6-{[1-(2,2,2-trifluoroethyl)piperidin-3-yl]oxy}pyridin-3-yl)-5-{[5-(trifluoromethyl)pyrazin-2-yl]amino}-1,2-thiazole-4-carboxamide], for which the IC50 in assay [1] turned out to be 0.0062 µM; with HeLa it was 0.26 µM.
Taken in the same sequence, the figures for `Cc1nsc(Nc2cnc(C(F)(F)F)cn2)c1C(=O)Nc1ccc(OC2CCCN(CC(F)F)C2)nc1` (stereo not shown) [Example 330, N-(6-{[1-(2,2-difluoroethyl)piperidin-3-yl]oxy}pyridin-3-yl)-3-methyl-5-{[5-(trifluoromethyl)pyrazin-2-yl]amino}-1,2-thiazole-4-carboxamide] were 0.023 µM and 1.2 µM.
Taken in the same sequence, the figures for `Cc1nsc(Nc2cnc(C(F)(F)F)cn2)c1C(=O)Nc1ccc(O[C@@H]2CCCN(CCC(F)(F)F)C2)nc1` [Example 387, 3-methyl-5-{[5-(trifluoromethyl)pyrazin-2-yl]amino}-N-(6-{[(3R)-1-(3,3,3-trifluoropropyl)piperidin-3-yl]oxy}pyridin-3-yl)-1,2-thiazole-4-carboxamide] were 0.07 µM and 0.4 µM.
For `Cc1nsc(Nc2cnc(C(F)(F)F)cn2)c1C(=O)Nc1ccc(OCC2CCCN(CC(F)F)C2)nc1` (stereo not shown) [Example 327, N-(6-{[1-(2,2-difluoroethyl)piperidin-3-yl]methoxy}pyridin-3-yl)-3-methyl-5-{[5-(trifluoromethyl)pyrazin-2-yl]amino}-1,2-thiazole-4-carboxamide], in that order: 0.0063 µM and 0.37 µM.
Turning to `Cc1nsc(Nc2cnc(C(F)(F)F)cn2)c1C(=O)Nc1ccc(F)c(OC[C@@H]2CCN(CCC(F)(F)F)C2)c1` [Example 340, N-(4-fluoro-3-{[(3R)-1-(3,3,3-trifluoropropyl)pyrrolidin-3-yl]methoxy}phenyl)-3-methyl-5-{[5-(trifluoromethyl)pyrazin-2-yl]amino}-1,2-thiazole-4-carboxamide], the IC50 in assay [1] is 0.033 µM; in the assay on HeLa it was 0.43 µM.
Taken in the same sequence, the figures for `CCCCN1CCC(COc2ccc(NC(=O)c3c(C)nsc3Nc3cnc(C(F)(F)F)cn3)cn2)C(F)(F)C1` (stereo not shown) [Example 396, N-{6-[(1-butyl-3,3-difluoropiperidin-4-yl)methoxy]pyridin-3-yl}-3-methyl-5-{[5-(trifluoromethyl)pyrazin-2-yl]amino}-1,2-thiazole-4-carboxamide] were 0.014 µM and 0.46 µM.
Taken in the same sequence, the figures for `Cc1nsc(Nc2cnc(C(F)(F)F)cn2)c1C(=O)Nc1ccc(OC2CCCN(CCF)C2)nc1` (stereo not shown) [Example 329, N-(6-{[1-(2-fluoroethyl)piperidin-3-yl]oxy}pyridin-3-yl)-3-methyl-5-{[5-(trifluoromethyl)pyrazin-2-yl]amino}-1,2-thiazole-4-carboxamide] were 0.035 µM and 1.3 µM.
For `Cc1nsc(Nc2cnc(C(F)(F)F)cn2)c1C(=O)Nc1ccc(OCCN(C)CCC(F)(F)F)nc1` [Example 351, 3-methyl-N-(6-{2-[methyl(3,3,3-trifluoropropyl)amino]ethoxy}pyridin-3-yl)-5-{[5-(trifluoromethyl)pyrazin-2-yl]amino}-1,2-thiazole-4-carboxamide], the results for the IC50 (in assay [1]; in the assay on HeLa) were 0.098 µM and 0.35 µM, respectively.
Taken in the same sequence, the figures for `Cc1nsc(Nc2cnc(C(F)(F)F)cn2)c1C(=O)Nc1ccc(O[C@@H]2CCCN(CC(F)F)C2)nc1` [Example 385, N-(6-{[(3R)-1-(2,2-difluoroethyl)piperidin-3-yl]oxy}pyridin-3-yl)-3-methyl-5-{[5-(trifluoromethyl)pyrazin-2-yl]amino}-1,2-thiazole-4-carboxamide] were 0.18 µM and 0.35 µM.
Taken in the same sequence, the figures for `Cc1nsc(Nc2cnc3ccccc3n2)c1C(=O)Nc1ccc(OC2CCCN(C(=O)OC(C)(C)C)C2)nc1` (stereo not shown) [Example 31, tert-Butyl 3-{[5-({[3-methyl-5-(quinoxalin-2-ylamino)-1,2-thiazol-4-yl]carbonyl}-amino)pyridin-2-yl]oxy}piperidine-1-carboxylate] were 0.22 µM and 1.2 µM.
Taken in the same sequence, the figures for `Cc1nsc(Nc2cnc(C(F)(F)F)cn2)c1C(=O)Nc1ccc(F)c(OC[C@@H]2CCCN(CCC(F)(F)F)C2)c1` [Example 395, N-(4-fluoro-3-{[(3R)-1-(3,3,3-trifluoropropyl)piperidin-3-yl]methoxy}phenyl)-3-methyl-5-{[5-(trifluoromethyl)pyrazin-2-yl]amino}-1,2-thiazole-4-carboxamide] were 0.035 µM and 0.48 µM.
Regarding `Cc1nsc(Nc2ccc(C#N)cn2)c1C(=O)Nc1ccc(OC2CCNCC2)nc1` [Example 28, 5-[(5-Cyanopyridin-2-yl)amino]-3-methyl-N-[6-(piperidin-4-yloxy)pyridin-3-yl]-1,2-thiazole-4-carboxannide], the IC50 in assay [1] is 11 µM; with HeLa, 3.7 µM.
Turning to `Cc1nsc(Nc2cnc(C(F)(F)F)cn2)c1C(=O)Nc1ccc(N2CCN(CC(F)(F)F)CC2)nc1` [Example 360, 3-methyl-N-{6-[4-(2,2,2-trifluoroethyl)piperazin-1-yl]pyridin-3-yl}-5-{[5-(trifluoromethyl)pyrazin-2-yl]amino}-1,2-thiazole-4-carboxamide], the IC50 was 0.036 µM in assay [1] and 0.35 µM in the assay on HeLa.
Turning to `CCN1CCC(COc2ccc(NC(=O)c3c(C)nsc3Nc3cnc(C(F)(F)F)cn3)cn2)C(F)(F)C1` (stereo not shown) [Example 393, N-{6-[(1-ethyl-3,3-difluoropiperidin-4-yl)methoxy]pyridin-3-yl}-3-methyl-5-{[5-(trifluoromethyl)pyrazin-2-yl]amino}-1,2-thiazole-4-carboxamide], the results for the IC50 (in assay [1]; in the assay with HeLa) were 0.014 µM and 0.43 µM, respectively.
